Measured values: patent US20090246276A1, “Pharmaceutical Compositions” (priority 2008, published 2009)
Counter-ions that a name gives are not always drawn.

Assay: In-vitro dissolution, 900 ml medium (0.1N HCl, pH 4.5 acetate buffer, pH 6.8 or pH 7.5 phosphate buffer), USP Apparatus 1, 75 rpm, 37° C.
Assay type: physicochemical
Conditions: for % Released (Bi-layer Tablets): Example 16 coated bi-layer tablet; for % Released (Homogenous Tablets): Example 19 tablet
Procedure: The dissolution profile of the above pharmaceutical composition was determined under the dissolution conditions described below in Tables 1A, 1B, and 1C.

Q: With `CN(C)CCC[C@@]1(c2ccc(F)cc2)OCc2cc(C#N)ccc21` [Escitalopram Ox, escitalopram oxalate] as the compound, how does the “% Released” value (Example 2 tablet, 0.1N HCl, 1 hr) read?
A: 15%

Q: What about the “% Released” value (Example 2 tablet, 0.1N HCl, 2 hr) of the same compound?
A: 35%

Q: What about the “% Released” value (Example 2 tablet, 0.1N HCl, 4 hr) of the same compound?
A: 68%

Q: What about the “% Released” value (Example 2 tablet, 0.1N HCl, 8 hr) of the same compound?
A: 99%

Q: And the “% Released” value (Example 2 tablet, 0.1N HCl, 12 hr)?
A: 102%

Q: What about the “% Released” value (Example 2 tablet, 0.1N HCl, 16 hr) of the same compound?
A: 101%

Q: What about the “% Released” value (Example 2 tablet, pH 4.5 acetate buffer, 1 hr) of the same compound?
A: 15%

Q: And the “% Released” value (Example 2 tablet, pH 4.5 acetate buffer, 2 hr)?
A: 35%

Q: What about the “% Released” value (Example 2 tablet, pH 4.5 acetate buffer, 4 hr) of the same compound?
A: 64%

Q: What about the “% Released” value (Example 2 tablet, pH 4.5 acetate buffer, 8 hr) of the same compound?
A: 97%

Q: And the “% Released” value (Example 2 tablet, pH 4.5 acetate buffer, 12 hr)?
A: 101%

Q: And the “% Released” value (Example 2 tablet, pH 4.5 acetate buffer, 16 hr)?
A: 100%

Q: And the “% Released” value (Example 2 tablet, pH 6.8 phosphate buffer, 1 hr)?
A: 14%

Q: What about the “% Released” value (Example 2 tablet, pH 6.8 phosphate buffer, 2 hr) of the same compound?
A: 33%

Q: And the “% Released” value (Example 2 tablet, pH 6.8 phosphate buffer, 4 hr)?
A: 61%

Q: What about the “% Released” value (Example 2 tablet, pH 6.8 phosphate buffer, 8 hr) of the same compound?
A: 92%

Q: And the “% Released” value (Example 2 tablet, pH 6.8 phosphate buffer, 12 hr)?
A: 96%

Q: And the “% Released” value (Example 2 tablet, pH 6.8 phosphate buffer, 16 hr)?
A: 96%

Q: And the “% Released” value (Example 3 tablet, 0.1N HCl, 1 hr)?
A: 14%

Q: What about the “% Released” value (Example 3 tablet, 0.1N HCl, 2 hr) of the same compound?
A: 32%

Q: What about the “% Released” value (Example 3 tablet, 0.1N HCl, 4 hr) of the same compound?
A: 63%

Q: What about the “% Released” value (Example 3 tablet, 0.1N HCl, 8 hr) of the same compound?
A: 102%

Q: And the “% Released” value (Example 3 tablet, 0.1N HCl, 12 hr)?
A: 106%

Q: What about the “% Released” value (Example 3 tablet, 0.1N HCl, 16 hr) of the same compound?
A: 105%

Q: What about the “% Released” value (Example 3 tablet, pH 4.5 acetate buffer, 1 hr) of the same compound?
A: 13%

Q: And the “% Released” value (Example 3 tablet, pH 4.5 acetate buffer, 2 hr)?
A: 29%

Q: What about the “% Released” value (Example 3 tablet, pH 4.5 acetate buffer, 4 hr) of the same compound?
A: 57%

Q: And the “% Released” value (Example 3 tablet, pH 4.5 acetate buffer, 8 hr)?
A: 96%

Q: And the “% Released” value (Example 3 tablet, pH 4.5 acetate buffer, 12 hr)?
A: 102%

Q: What about the “% Released” value (Example 3 tablet, pH 4.5 acetate buffer, 16 hr) of the same compound?
A: 101%

Q: What about the “% Released” value (Example 3 tablet, pH 6.8 phosphate buffer, 1 hr) of the same compound?
A: 13%

Q: What about the “% Released” value (Example 3 tablet, pH 6.8 phosphate buffer, 2 hr) of the same compound?
A: 29%

Q: And the “% Released” value (Example 3 tablet, pH 6.8 phosphate buffer, 4 hr)?
A: 59%

Q: And the “% Released” value (Example 3 tablet, pH 6.8 phosphate buffer, 8 hr)?
A: 99%

Q: What about the “% Released” value (Example 3 tablet, pH 6.8 phosphate buffer, 12 hr) of the same compound?
A: 104%

Q: What about the “% Released” value (Example 3 tablet, pH 6.8 phosphate buffer, 16 hr) of the same compound?
A: 104%

Q: What about the “% Released” value (Example 5 tablet, 0.1N HCl, 1 hr) of the same compound?
A: 13%

Q: And the “% Released” value (Example 5 tablet, 0.1N HCl, 2 hr)?
A: 26%

Q: And the “% Released” value (Example 5 tablet, 0.1N HCl, 4 hr)?
A: 49%

Q: And the “% Released” value (Example 5 tablet, 0.1N HCl, 8 hr)?
A: 81%

Q: And the “% Released” value (Example 5 tablet, 0.1N HCl, 12 hr)?
A: 97%

Q: What about the “% Released” value (Example 5 tablet, 0.1N HCl, 16 hr) of the same compound?
A: 98%

Q: And the “% Released” value (Example 6 tablet, 0.1N HCl, 1 hr)?
A: 16%

Q: What about the “% Released” value (Example 6 tablet, 0.1N HCl, 2 hr) of the same compound?
A: 34%

Q: What about the “% Released” value (Example 6 tablet, 0.1N HCl, 4 hr) of the same compound?
A: 63%

Q: What about the “% Released” value (Example 6 tablet, 0.1N HCl, 8 hr) of the same compound?
A: 97%

Q: What about the “% Released” value (Example 6 tablet, 0.1N HCl, 12 hr) of the same compound?
A: 100%

Q: And the “% Released” value (Example 6 tablet, 0.1N HCl, 16 hr)?
A: 100%

Q: What about the “% Released” value (Example 7 tablet, 0.1N HCl, 1 hr) of the same compound?
A: 2%

Q: What about the “% Released” value (Example 7 tablet, 0.1N HCl, 2 hr) of the same compound?
A: 7%

Q: And the “% Released” value (Example 7 tablet, 0.1N HCl, 4 hr)?
A: 19%

Q: What about the “% Released” value (Example 7 tablet, 0.1N HCl, 8 hr) of the same compound?
A: 44%

Q: And the “% Released” value (Example 7 tablet, 0.1N HCl, 12 hr)?
A: 63%

Q: And the “% Released” value (Example 7 tablet, 0.1N HCl, 16 hr)?
A: 77%

Q: And the “% Released” value (Example 8 tablet, 0.1N HCl, 1 hr)?
A: 0%

Q: And the “% Released” value (Example 8 tablet, 0.1N HCl, 2 hr)?
A: 1%

Q: And the “% Released” value (Example 8 tablet, 0.1N HCl, 4 hr)?
A: 6%

Q: And the “% Released” value (Example 8 tablet, 0.1N HCl, 8 hr)?
A: 19%

Q: What about the “% Released” value (Example 8 tablet, 0.1N HCl, 12 hr) of the same compound?
A: 31%

Q: What about the “% Released” value (Example 8 tablet, 0.1N HCl, 16 hr) of the same compound?
A: 40%

Q: And the “% Released” value (Example 9 tablet, 0.1N HCl, 1 hr)?
A: 17%

Q: What about the “% Released” value (Example 9 tablet, 0.1N HCl, 2 hr) of the same compound?
A: 48%

Q: And the “% Released” value (Example 9 tablet, 0.1N HCl, 3 hr)?
A: 74%

Q: What about the “% Released” value (Example 9 tablet, 0.1N HCl, 4 hr) of the same compound?
A: 93%

Q: And the “% Released” value (Example 9 tablet, 0.1N HCl, 6 hr)?
A: 104%

Q: And the “% Released” value (Example 9 tablet, 0.1N HCl, 8 hr)?
A: 103%

Q: And the “% Released” value (Example 9 tablet, 0.1N HCl, 10 hr)?
A: 103%

Q: What about the “% Released” value (Example 10 tablet, 0.1N HCl, 1 hr) of the same compound?
A: 14%

Q: What about the “% Released” value (Example 10 tablet, 0.1N HCl, 2 hr) of the same compound?
A: 32%

Q: What about the “% Released” value (Example 10 tablet, 0.1N HCl, 4 hr) of the same compound?
A: 59%

Q: What about the “% Released” value (Example 10 tablet, 0.1N HCl, 8 hr) of the same compound?
A: 94%

Q: And the “% Released” value (Example 10 tablet, 0.1N HCl, 12 hr)?
A: 99%

Q: What about the “% Released” value (Example 10 tablet, 0.1N HCl, 16 hr) of the same compound?
A: 99%

Q: And the “% Released” value (Example 11 tablet, 0.1N HCl, 1 hr)?
A: 16%

Q: What about the “% Released” value (Example 11 tablet, 0.1N HCl, 2 hr) of the same compound?
A: 33%

Q: What about the “% Released” value (Example 11 tablet, 0.1N HCl, 4 hr) of the same compound?
A: 56%

Q: What about the “% Released” value (Example 11 tablet, 0.1N HCl, 8 hr) of the same compound?
A: 88%

Q: What about the “% Released” value (Example 11 tablet, 0.1N HCl, 12 hr) of the same compound?
A: 97%

Q: And the “% Released” value (Example 11 tablet, 0.1N HCl, 16 hr)?
A: 97%

Q: And the “% Released” value (Example 12 tablet, 0.1N HCl, 1 hr)?
A: 8%

Q: And the “% Released” value (Example 12 tablet, 0.1N HCl, 2 hr)?
A: 29%

Q: And the “% Released” value (Example 12 tablet, 0.1N HCl, 3 hr)?
A: 47%

Q: What about the “% Released” value (Example 12 tablet, 0.1N HCl, 4 hr) of the same compound?
A: 63%

Q: What about the “% Released” value (Example 12 tablet, 0.1N HCl, 5 hr) of the same compound?
A: 77%

Q: What about the “% Released” value (Example 12 tablet, 0.1N HCl, 6 hr) of the same compound?
A: 92%

Q: And the “% Released” value (Example 12 tablet, 0.1N HCl, 7 hr)?
A: 98%

Q: What about the “% Released” value (Example 12 tablet, 0.1N HCl, 8 hr) of the same compound?
A: 102%

Q: And the “% Released” value (Example 13 tablet, 0.1N HCl, 1 hr)?
A: 9%

Q: And the “% Released” value (Example 13 tablet, 0.1N HCl, 2 hr)?
A: 28%

Q: What about the “% Released” value (Example 13 tablet, 0.1N HCl, 3 hr) of the same compound?
A: 45%

Q: What about the “% Released” value (Example 13 tablet, 0.1N HCl, 4 hr) of the same compound?
A: 60%

Q: What about the “% Released” value (Example 13 tablet, 0.1N HCl, 6 hr) of the same compound?
A: 83%

Q: And the “% Released” value (Example 13 tablet, 0.1N HCl, 8 hr)?
A: 96%

Q: What about the “% Released” value (Example 13 tablet, 0.1N HCl, 10 hr) of the same compound?
A: 99%

Q: And the “% Released” value (Example 13 tablet, 0.1N HCl, 12 hr)?
A: 100%

Q: And the “% Released” value (Example 13 tablet, 0.1N HCl, 16 hr)?
A: 100%

Q: What about the “% Released” value (Example 14 tablet, 0.1N HCl, 4 hr) of the same compound?
A: 56%

Q: What about the “% Released” value (Example 14 tablet, 0.1N HCl, 6 hr) of the same compound?
A: 76%

Q: And the “% Released” value (Example 14 tablet, 0.1N HCl, 8 hr)?
A: 92%

Q: And the “% Released” value (Example 14 tablet, 0.1N HCl, 10 hr)?
A: 99%

Q: And the “% Released (Bi-layer Tablets)” value (0.1N HCl, 1 hr)?
A: 9.47%

Q: And the “% Released (Bi-layer Tablets)” value (0.1N HCl, 2 hr)?
A: 27.06%

Q: And the “% Released (Bi-layer Tablets)” value (0.1N HCl, 3 hr)?
A: 45.32%

Q: And the “% Released (Bi-layer Tablets)” value (0.1N HCl, 4 hr)?
A: 60.81%

Q: And the “% Released (Bi-layer Tablets)” value (0.1N HCl, 5 hr)?
A: 74.22%

Q: And the “% Released (Bi-layer Tablets)” value (0.1N HCl, 6 hr)?
A: 83.48%

Q: What about the “% Released (Bi-layer Tablets)” value (0.1N HCl, 7 hr) of the same compound?
A: 90.11%

Q: And the “% Released (Bi-layer Tablets)” value (0.1N HCl, 8 hr)?
A: 93.47%

Q: And the “% Released (Homogenous Tablets)” value (0.1N HCl, 1 hr)?
A: 16.65%

Q: And the “% Released (Homogenous Tablets)” value (0.1N HCl, 2 hr)?
A: 40.32%

Q: What about the “% Released (Homogenous Tablets)” value (0.1N HCl, 3 hr) of the same compound?
A: 59.61%

Q: And the “% Released (Homogenous Tablets)” value (0.1N HCl, 4 hr)?
A: 75.31%

Q: What about the “% Released (Homogenous Tablets)” value (0.1N HCl, 5 hr) of the same compound?
A: 86.68%

Q: And the “% Released (Homogenous Tablets)” value (0.1N HCl, 6 hr)?
A: 94.46%

Q: What about the “% Released (Homogenous Tablets)” value (0.1N HCl, 7 hr) of the same compound?
A: 99.30%

Q: What about the “% Released (Homogenous Tablets)” value (0.1N HCl, 8 hr) of the same compound?
A: 101.01%
